For seven compounds, MIC results are on record in DBAASP.

Test systems include Bacillus subtilis 168; Bacillus megaterium; Escherichia coli ML-35p; Listeria ivanovii; Saccharomyces cerevisiae; Escherichia coli TOP 10; Escherichia coli W3110.
Holding throughout (assay): ≥ marks a high value that may be exact or a test limit, other limits are often not marked, values filed in µg/mL are converted to µM
Test [1] deals with Pseudomonas aeruginosa PAO1.
For test [2], the system named is Staphylococcus aureus NRS 72.
For test [3], the system named is Escherichia coli DH5alpha.
The subject of test [4] is Mycobacterium tuberculosis H37Ra.
Test [5] deals with Staphylococcus aureus USA 300.
Test [6] concerns Enterococcus faecium ATCC 19434.
Test [7] has as its system Enterococcus faecalis ATCC 51299.
Test [8] has as its system Pseudomonas aeruginosa ATCC 27853.
The test system of test [9] is Salmonella enterica subsp. enterica serovar Typhimurium ATCC 14028.
For test [10], the system named is Klebsiella pneumoniae ATCC 49472.
Test [11] has as its system Escherichia coli ATCC 35218.
Test [12] concerns Staphylococcus aureus ATCC 12600.
Test [13] has as its system Klebsiella pneumoniae ATCC BAA-2814.
The test system of test [14] is Staphylococcus aureus ATCC BAA-2312.
Test [15] has as its system Staphylococcus aureus ATCC BAA-44.
The subject of test [16] is Staphylococcus aureus ST1065.
In test [17] the test system is Salmonella enterica subsp. enterica serovar Enteritidis.
Test [18] concerns Acinetobacter baumannii ATCC 19606.
Test [19] has as its system Escherichia coli ATCC 25922.
The subject of test [20] is Staphylococcus aureus ATCC 25923.
Test [21] relates to Enterococcus faecalis ATCC 29212.
The subject of test [22] is Staphylococcus aureus ATCC 43300.
The test system of test [23] is Candida parapsilosis ATCC 22019.
For test [24], the system named is Candida albicans ATCC 90028.
In test [25] the test system is Klebsiella pneumoniae ATCC 13883.
Test [26] relates to Staphylococcus aureus SH1000.
Test [27] relates to Klebsiella pneumoniae ATCC BAA-1705.
For test [28], the system named is Escherichia coli CICC 10670.
The subject of test [29] is Listeria monocytogenes ATCC 19115.
Test [30] relates to Bacillus subtilis CMCC 63501.
Test [31] relates to Staphylococcus aureus ATCC 6538.

The structures appear in SMILES notation. ≈ marks a conversion by molar mass, not a printed value. A value given as a limit tells only on which side of the number the result lay.

As to `CC(C)C[C@H](NC(=O)[C@H](Cc1c[nH]c2ccccc12)NC(=O)[C@H](CCCCN)NC(=O)[C@H](CCCN=C(N)N)NC(=O)[C@H](Cc1c[nH]c2ccccc12)NC(=O)[C@@H](NC(=O)CNC(=O)[C@@H](NC(=O)[C@H](Cc1c[nH]c2ccccc12)NC(=O)[C@H](CCCN=C(N)N)NC(=O)[C@H](CCCCN)NC(=O)[C@H](Cc1c[nH]c2ccccc12)NC(=O)[C@@H](N)CC(C)C)C(C)C)C(C)C)C(N)=O` [LWKRWVGVWRKWL], the MIC was 20 µM (≈ 36.2 µg/mL) in [1]; 5 µM (≈ 9.06 µg/mL) in [2]; 10 µM (≈ 18.1 µg/mL) in test [3]; 20 µM (≈ 36.2 µg/mL) in test [4]; 0.6 µM (≈ 1.09 µg/mL) with Bacillus subtilis 168; 7 µM (≈ 12.7 µg/mL) in [5].
With `CC[C@H](C)[C@H](NC(=O)[C@H](CCC(N)=O)NC(=O)[C@H](CO)NC(=O)[C@H](C)NC(=O)[C@H](CC(C)C)NC(=O)[C@H](Cc1cnc[nH]1)NC(=O)[C@@H](NC(=O)[C@H](CC(C)C)NC(=O)[C@H](CC(C)C)NC(=O)[C@H](CCC(=O)O)NC(=O)[C@H](CCCCN)NC(=O)CNC(=O)[C@H](C)NC(=O)CNC(=O)[C@H](CCCCN)NC(=O)[C@H](Cc1ccccc1)NC(=O)[C@H](Cc1ccccc1)NC(=O)[C@H](CC(=O)O)NC(=O)[C@H](CC(C)C)NC(=O)[C@H](CC(C)C)NC(=O)CN)[C@@H](C)O)C(N)=O` [GLLDFFKGAGKELLTHLASQI], the MIC in [6] is ≥ 250 µM; in [7] it was ≥ 250 µM; in test [8], > 125 µM; in [9], 125 µM (≈ 282 µg/mL); in test [10], ≥ 125 µM; in [11], ≥ 62.5 µM. Moreover, the values for the minimum inhibitory concentration (MIC) in test [12], in [13] and in test [14] were ≥ 250 µM, ≥ 125 µM and ≥ 250 µM, respectively.
With `CC[C@H](C)[C@H](NC(=O)CNC(=O)[C@H](C)NC(=O)[C@H](CC(C)C)NC(=O)[C@H](C)NC(=O)[C@@H]1CCCN1C(=O)[C@H](CC(C)C)NC(=O)[C@@H](N)Cc1ccccc1)C(=O)N[C@@H](C)C(=O)NCC(=O)N[C@@H](CC(C)C)C(=O)N[C@@H](CC(C)C)C(=O)NCC(=O)N[C@@H](CCCCN)C(=O)N[C@H](C(=O)N[C@@H](Cc1ccccc1)C(N)=O)[C@@H](C)CC` [FLPALAGIAGLLGKIF], the MIC in the test with Bacillus megaterium was 1.56 µM (≈ 2.5 µg/mL); in test [15] it was 3.12 µM (≈ 4.99 µg/mL); in [16], 3.12 µM (≈ 4.99 µg/mL); in test [8], 60 µM (≈ 96 µg/mL); in [17], ≥ 100 µM; in [18], 25 µM (≈ 40 µg/mL). Further, the MIC was 25 µM (≈ 40 µg/mL) in [19]; ≥ 50 µM in test [11]; ≥ 50 µM in the test on Escherichia coli ML-35p; 3.12 µM (≈ 4.99 µg/mL) in [20]; 12.5 µM (≈ 20 µg/mL) in test [21]; 5 µM (≈ 8 µg/mL) in the test with Listeria ivanovii. For the same compound, the minimal inhibitory concentration (MIC) against Saccharomyces cerevisiae was 12.5 µM (≈ 20 µg/mL); in [22] it was 3.1 µM (≈ 4.96 µg/mL); in test [23], ≥ 50 µM; in [24], ≥ 100 µM; in test [25], ≥ 100 µM.
With `CC[C@H](C)[C@H](N)C(=O)N[C@@H](CC(C)C)C(=O)N1CCC[C@H]1C(=O)N[C@@H](CC(C)C)C(=O)N[C@@H](CC(C)C)C(=O)N[C@@H](CCCCN)C(=O)N[C@@H](CCCCN)C(=O)N[C@@H](Cc1ccccc1)C(=O)NCC(=O)N[C@@H](CCCCN)C(=O)N[C@@H](CCCCN)C(=O)N[C@@H](Cc1ccccc1)C(=O)NCC(=O)N[C@@H](CCCCN)C(=O)N[C@@H](CCCCN)C(=O)N[C@H](C(=O)N[C@@H](Cc1c[nH]c2ccccc12)C(=O)N[C@@H](CCCCN)C(=O)N[C@@H](C)C(=O)N[C@@H](CC(C)C)C(N)=O)C(C)C` [ILPLLKKFGKKFGKKVWKAL], the MIC in the test on Escherichia coli TOP 10 was 10.7 µM (≈ 25 µg/mL).
With `CC[C@H](C)[C@H](NC(=O)[C@H](CC(=O)O)NC(=O)[C@H](Cc1ccccc1)NC(=O)[C@H](CC(C)C)NC(=O)[C@@H](N)CCCCN)C(=O)N[C@H](C(=O)N[C@@H](CCCCN)C(=O)N[C@@H](CCCCN)C(=O)N[C@H](C(=O)N[C@H](C(=O)NCC(=O)N[C@@H](C)C(=O)N[C@@H](CC(C)C)C(=O)NCC(N)=O)C(C)C)C(C)C)C(C)C` [KLFDIVKKVVGALG], the MIC in test [26] was ≥ 100 µM.
Regarding `CC[C@H](C)[C@H](N)C(=O)N[C@@H](CC(C)C)C(=O)N[C@@H](Cc1c[nH]c2ccccc12)C(=O)N[C@@H](C)C(=O)N[C@@H](CS)C(=O)N[C@@H](Cc1c[nH]c2ccccc12)C(=O)NCC(=O)N[C@@H](CC(C)C)C(=O)N[C@@H](CCCCN)C(=O)N[C@@H](CC(C)C)C(=O)N[C@@H](CC(C)C)C(=O)N[C@@H](CCCN=C(N)N)C(=O)N[C@@H](Cc1ccc(O)cc1)C(=O)N[C@@H](CCCN=C(N)N)C(=O)N[C@@H](CCCN=C(N)N)C(=O)N[C@H](C(=O)N[C@@H](Cc1ccc(O)cc1)C(=O)O)[C@@H](C)CC` [ILWACWGLKLLRYRRIY], the values for the MIC (with Escherichia coli W3110; in test [27]) were 16 µM (≈ 35.6 µg/mL) and ≥ 128 µM, respectively.
In the case of `CC(C)C[C@H](NC(=O)[C@H](Cc1ccccc1)NC(=O)[C@@H](NC(=O)[C@H](CC(C)C)NC(=O)[C@H](CC(=O)O)NC(=O)[C@H](CCCCN)NC(=O)[C@H](C)NC(=O)[C@@H](NC(=O)[C@H](CC(C)C)NC(=O)[C@@H](NC(=O)[C@H](C)N)[C@@H](C)O)[C@@H](C)O)[C@@H](C)O)C(=O)N[C@@H](CCC(N)=O)C(=O)N[C@@H](CC(=O)O)C(=O)N[C@@H](Cc1ccc(O)cc1)C(=O)N[C@@H](CCCCN)C(=O)N[C@@H](CCCCN)C(=O)N[C@H](C(=O)N[C@@H](CCCCN)C(=O)N[C@@H](CCCCN)C(=O)N[C@@H](CCCN=C(N)N)C(=O)N[C@H](C(=O)N[C@@H](CCCCN)C(=O)O)C(C)C)[C@@H](C)O` [ATLTAKDLTFLQDYKKTKKRVK], the MIC in [28] is ≥ 40 µM; in test [29] it was 20 µM (≈ 51.9 µg/mL); in test [9] it was 20 µM (≈ 51.9 µg/mL); in [30], 10 µM (≈ 26 µg/mL); in [31] it was 20 µM (≈ 51.9 µg/mL).
